Assay results as given in ChEMBL document CHEMBL1201862, “PubChem BioAssay data set” (2004).
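Interpolation was linear, between the two tested concentrations surrounding the appropriate level; five concentrations were tested over 48 hours in 96-well plates. GI50 = concentration required for 50% inhibition of growth.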 The source made the active and inactive calls. Cut-off read from the data, not from the text of the source: active = GI50 up to about 1.1 µM and inactive = higher.

Key:
Assay in all cases: NCI anticancer screen, dose series, 48 h
OVCAR-3 = system: OVCAR-3
HOP-18 = system: HOP-18
UACC-257 = system: UACC-257
A498 = system: A498
SK-MEL-28 = system: SK-MEL-28
OVCAR-5 = system: OVCAR-5
HOP-92 = system: HOP-92
U-251 = system: U-251
RXF 631 = system: RXF 631
OVCAR-4 = system: OVCAR-4
NCI-H226 = system: NCI-H226
IGROV-1 = system: IGROV-1
COLO 205 = system: COLO 205
M14 = system: M14
HCT-15 = system: HCT-15
Malme-3M = system: Malme-3M
SW-620 = system: SW-620
CCRF-CEM = system: CCRF-CEM
SN12C = system: SN12C
SK-MEL-5 = system: SK-MEL-5
EKVX = system: EKVX
KM-20L2 = system: KM-20L2
HT-29 = system: HT-29
ACHN = system: ACHN
DLD-1 = system: DLD-1
SF-295 = system: SF-295
NCI-H23 = system: NCI-H23
786-0 = system: 786-0
CAKI-1 = system: CAKI-1
M19-MEL = system: M19-MEL
SK-OV-3 = system: SK-OV-3
SNB-19 = system: SNB-19
LOX IMVI = system: LOX IMVI
XF498 = system: XF498
A549 = system: A549
SF-268 = system: SF-268
HCC 2998 = system: HCC 2998
SF-539 = system: SF-539
RPMI-8226 = system: RPMI-8226
HL-60 = system: HL-60
DMS-114 = system: DMS-114
RXF 393 = system: RXF 393
MOLT-4 = system: MOLT-4
LXFL 529 = system: LXFL 529
TK-10 = system: TK-10
OVCAR-8 = system: OVCAR-8
HOP-62 = system: HOP-62
K562 = system: K562
SNB-78 = system: SNB-78
UACC-62 = system: UACC-62
UO-31 = system: UO-31
NCI-H460 = system: NCI-H460
KM12 = system: KM12
HCT-116 = system: HCT-116
NCI-H522 = system: NCI-H522
SK-MEL-2 = system: SK-MEL-2
SNB-75 = system: SNB-75

With Cc1nc2ccccn2c1/N=N/c1ccc(C(=O)NN)cc1 the GI50 (OVCAR-3) was 45 µM (inactive), the GI50 (HOP-18) was 70.6 µM (inactive) and the GI50 (UACC-257) was 97.5 µM (inactive). For the same compound, the GI50 (A498) was 27.7 µM (inactive), the GI50 (SK-MEL-28) was 80.9 µM (inactive) and the GI50 (OVCAR-5) was 36.1 µM (inactive). The GI50 (HOP-92) was 46.5 µM (inactive), the GI50 (U-251) was 61.7 µM (inactive) and the GI50 (RXF 631) was 31.7 µM (inactive). For the same compound, the GI50 (OVCAR-4) was > 100 µM (inactive), the GI50 (NCI-H226) was 25.5 µM (inactive) and the GI50 (IGROV-1) was 21.7 µM (inactive). The GI50 (COLO 205) was 51.2 µM (inactive), the GI50 (M14) was > 100 µM (inactive) and the GI50 (HCT-15) was 54.2 µM. The GI50 (Malme-3M) was > 100 µM (inactive), the GI50 (SW-620) was 49.3 µM (inactive) and the GI50 (CCRF-CEM) was 4.59 µM (inactive). The GI50 (SN12C) was 27.7 µM (inactive), the GI50 (SK-MEL-5) was 22.4 µM (inactive) and the GI50 (EKVX) was 36.5 µM (inactive). The GI50 (KM-20L2) was 92.9 µM (inactive), the GI50 (HT-29) was 73.5 µM (inactive) and the GI50 (ACHN) was 36 µM (inactive). For the same compound, the GI50 (DLD-1) was 52.4 µM (inactive), the GI50 (SF-295) was 43.2 µM (inactive) and the GI50 (NCI-H23) was 28.9 µM (inactive). For the same compound, the GI50 (786-0) was 53.8 µM (inactive), the GI50 (CAKI-1) was 22.2 µM (inactive) and the GI50 (M19-MEL) was > 100 µM (inactive). For the same compound, the GI50 (SK-OV-3) was 48 µM (inactive), the GI50 (SNB-19) was 49.5 µM (inactive) and the GI50 (LOX IMVI) was 26.3 µM (inactive). The GI50 (XF498) was 75 µM (inactive), the GI50 (A549) was 24.9 µM (inactive) and the GI50 (SF-268) was 19.4 µM (inactive). For the same compound, the GI50 (HCC 2998) was 75.7 µM (inactive), the GI50 (SF-539) was 77.3 µM (inactive) and the GI50 (RPMI-8226) was 28.4 µM (inactive). The GI50 (HL-60) was 9.31 µM (inactive), the GI50 (DMS-114) was 17.4 µM (inactive) and the GI50 (RXF 393) was 9.82 µM (inactive). For the same compound, the GI50 (MOLT-4) was 5.02 µM (inactive), the GI50 (LXFL 529) was 38.5 µM (inactive) and the GI50 (TK-10) was 23 µM (inactive). The GI50 (OVCAR-8) was 95.3 µM (inactive), the GI50 (HOP-62) was 38.3 µM (inactive) and the GI50 (K562) was 49.8 µM (inactive). For the same compound, the GI50 (SNB-78) was > 100 µM (inactive), the GI50 (UACC-62) was 80.2 µM (inactive) and the GI50 (UO-31) was 36.9 µM (inactive).

With CC1=N/C(=C\c2cccc3ccccc23)C(=O)O1 the GI50 (HOP-18) was 10.6 µM (inactive), the GI50 (UACC-257) was > 100 µM (inactive) and the GI50 (A498) was > 100 µM (inactive). For the same compound, the GI50 (SK-MEL-28) was > 100 µM (inactive), the GI50 (OVCAR-5) was > 100 µM (inactive) and the GI50 (HOP-92) was > 100 µM (inactive). For the same compound, the GI50 (U-251) was > 100 µM (inactive), the GI50 (RXF 631) was > 100 µM (inactive) and the GI50 (IGROV-1) was > 100 µM (inactive). For the same compound, the GI50 (NCI-H460) was > 100 µM (inactive), the GI50 (COLO 205) was > 100 µM (inactive) and the GI50 (M14) was > 100 µM (inactive). For the same compound, the GI50 (HCT-15) was > 100 µM, the GI50 (Malme-3M) was > 100 µM (inactive) and the GI50 (KM12) was > 100 µM (inactive). For the same compound, the GI50 (SW-620) was > 100 µM (inactive), the GI50 (HCT-116) was > 100 µM (inactive) and the GI50 (CCRF-CEM) was > 100 µM (inactive). For the same compound, the GI50 (SN12C) was > 100 µM (inactive), the GI50 (SK-MEL-5) was > 100 µM (inactive) and the GI50 (NCI-H522) was > 100 µM (inactive). The GI50 (EKVX) was > 100 µM (inactive), the GI50 (KM-20L2) was > 100 µM (inactive) and the GI50 (HT-29) was > 100 µM (inactive). For the same compound, the GI50 (ACHN) was > 100 µM (inactive), the GI50 (DLD-1) was > 100 µM (inactive) and the GI50 (SF-295) was > 100 µM (inactive). For the same compound, the GI50 (NCI-H23) was > 100 µM (inactive), the GI50 (786-0) was > 100 µM (inactive) and the GI50 (M19-MEL) was > 100 µM (inactive). For the same compound, the GI50 (SNB-19) was > 100 µM (inactive), the GI50 (A549) was > 100 µM (inactive) and the GI50 (SF-268) was > 100 µM (inactive). For the same compound, the GI50 (SK-MEL-2) was > 100 µM (inactive), the GI50 (HCC 2998) was > 100 µM (inactive) and the GI50 (SF-539) was > 100 µM (inactive). The GI50 (RPMI-8226) was > 100 µM (inactive), the GI50 (HL-60) was > 100 µM (inactive) and the GI50 (DMS-114) was > 100 µM (inactive). The GI50 (RXF 393) was > 100 µM (inactive), the GI50 (MOLT-4) was > 100 µM (inactive) and the GI50 (LXFL 529) was > 100 µM (inactive). The GI50 (TK-10) was > 100 µM (inactive), the GI50 (OVCAR-8) was > 100 µM (inactive) and the GI50 (HOP-62) was > 100 µM (inactive). For the same compound, the GI50 (K562) was > 100 µM (inactive), the GI50 (SNB-78) was > 100 µM (inactive) and the GI50 (UACC-62) was > 100 µM (inactive). The GI50 (UO-31) was > 100 µM (inactive).

With O=C(CC1Sc2ccccc2NC1=O)Nc1ccc([N+](=O)[O-])cc1[N+](=O)[O-] (centres undefined) the GI50 (OVCAR-3) was 16.3 µM (inactive), the GI50 (HOP-18) was 3.39 µM (inactive) and the GI50 (UACC-257) was 19.9 µM (inactive). The GI50 (SK-MEL-28) was 17.7 µM (inactive), the GI50 (OVCAR-5) was 29.2 µM (inactive) and the GI50 (HOP-92) was 11 µM (inactive). For the same compound, the GI50 (U-251) was 16 µM (inactive), the GI50 (RXF 631) was 17.1 µM (inactive) and the GI50 (OVCAR-4) was 17.2 µM (inactive). For the same compound, the GI50 (NCI-H226) was 11.9 µM (inactive), the GI50 (IGROV-1) was 17.4 µM (inactive) and the GI50 (NCI-H460) was 23.7 µM (inactive). For the same compound, the GI50 (COLO 205) was 26.7 µM (inactive), the GI50 (M14) was 16 µM (inactive) and the GI50 (Malme-3M) was 19.8 µM (inactive). The GI50 (KM12) was 21.7 µM (inactive), the GI50 (SW-620) was 18.4 µM (inactive) and the GI50 (HCT-116) was 16 µM (inactive). For the same compound, the GI50 (CCRF-CEM) was 15.6 µM (inactive), the GI50 (SN12C) was 16.1 µM (inactive) and the GI50 (SK-MEL-5) was 15.8 µM (inactive). For the same compound, the GI50 (EKVX) was 32.2 µM (inactive), the GI50 (KM-20L2) was 26.7 µM (inactive) and the GI50 (HT-29) was 17.7 µM (inactive). The GI50 (ACHN) was 15.3 µM (inactive), the GI50 (DLD-1) was 15.3 µM (inactive) and the GI50 (SF-295) was 16.8 µM (inactive). The GI50 (NCI-H23) was 13.1 µM (inactive), the GI50 (786-0) was 17.9 µM (inactive) and the GI50 (M19-MEL) was 16.1 µM (inactive). The GI50 (SNB-19) was 19.5 µM (inactive), the GI50 (LOX IMVI) was 16.2 µM (inactive) and the GI50 (A549) was 26.5 µM (inactive). For the same compound, the GI50 (SF-268) was 16.6 µM (inactive), the GI50 (SK-MEL-2) was 19.5 µM (inactive) and the GI50 (HCC 2998) was 50.9 µM (inactive). For the same compound, the GI50 (RPMI-8226) was 11.3 µM (inactive), the GI50 (HL-60) was 17.8 µM (inactive) and the GI50 (DMS-114) was 14.2 µM (inactive). The GI50 (RXF 393) was 12.9 µM (inactive), the GI50 (MOLT-4) was 20.1 µM (inactive) and the GI50 (LXFL 529) was 15.3 µM (inactive). The GI50 (TK-10) was 41.3 µM (inactive), the GI50 (SNB-75) was 20 µM (inactive) and the GI50 (OVCAR-8) was 16.5 µM (inactive). The GI50 (HOP-62) was 40.6 µM (inactive), the GI50 (SNB-78) was 21.2 µM (inactive) and the GI50 (UACC-62) was 15.4 µM (inactive). For the same compound, the GI50 (UO-31) was 12 µM (inactive).
